# Assay results published in ChEMBL document CHEMBL1158054, “Cytotoxic monotetrahydrofuran acetogenins from Disepalum plagioneurum” (J Nat Prod, 2006).
# Test system: KB
# Assay: Cytotoxicity against human KB cells
# Format: functional, cell-based
row,SMILES,IC50
1,CCCCCCCCCCCC[C@@H](O)[C@H]1CC[C@H]([C@H](O)CC(CCCCC(O)CCCCCCCC2=C[C@H](C)OC2=O)OC(C)=O)O1 (some centres undefined) [PLAGIONEURIN A],2.4 nM
2,CCCCCCCCCCCC[C@H](O)[C@H]1CC[C@H]([C@@H](O)CC(CCCCC(O)CCCCCCCC2=C[C@H](C)OC2=O)OC(C)=O)O1 (some centres undefined) [PLAGIONEURIN B],6.5 nM
3,CCCCCCCCCCCC[C@@H](O)[C@H]1CC[C@H]([C@H](O)CC(CCCCC(=O)CCCCCCCC2=C[C@H](C)OC2=O)OC(C)=O)O1 (some centres undefined) [PLAGIONEURIN C],26 nM
4,CCCCCCCCCCCC[C@@H](O)[C@H]1CC[C@H]([C@H](O)CC(CCCCC(=O)CCCC[C@@H](O)CCC2=C[C@H](C)OC2=O)OC(C)=O)O1 (some centres undefined) [PLAGIONEURIN D],2.8 nM
5,CCCCCCCCCCCC[C@@H](O)[C@H]1CC[C@H]([C@H](O)CC(CCCCC(=O)CCCCC(O)CCC2=C[C@H](C)OC2=O)OC(C)=O)O1 (some centres undefined) [PLAGIONEURIN E],2.6 nM
6,CCCCCCCCCCCC[C@@H](O)[C@H]1CC[C@H]([C@H](O)CCCCC(O)CCCC[C@@H](O)CCC2=C[C@H](C)OC2=O)O1 (some centres undefined) [PLAGIONICIN A],2 nM
7,CCCCCCCCCCCC[C@@H](O)[C@H]1CC[C@@H]([C@@H](O)CCCCC(=O)CCCCC(O)CCC2=C[C@H](C)OC2=O)O1 (some centres undefined) [PLAGIONICIN B],1400 nM
8,CCCCCCCCCCCC[C@@H](O)[C@H]1CC[C@@H]([C@@H](O)CCCC(O)CCCCCC(O)C(O)CC2=C[C@H](C)OC2=O)O1 (some centres undefined) [PLAGIONICIN C],6 nM
9,CCCCCCCCCCCC[C@@H](O)[C@H]1CC[C@H]([C@H](O)CCCC(O)C(O)CCCCC(=O)CCC2=C[C@H](C)OC2=O)O1 (some centres undefined) [PLAGIONICIN D],26 nM
